Results published in patent US12319649B1, “Cannabidiolic acid cocrystals” (Manoira Corporation, priority 2024, dated 2025).

What was measured:
[1] = Solid-state stability study at 40° C. and 75% relative humidity; format: physicochemical; conditions: 40° C./75% RH, sealed container; for Storage stability compared to pure cannabidiolic acid: up to 4 weeks
Description: The physical stability of the cannabidiolic acid cocrystals was examined with respect to solid form conversion or signs of decomposition or decarboxylation, and to compare the results with those for pure cannabidiolic acid. In order to assess the storage potential of the cocrystals within a reasonable timeframe standard accelerated storage conditions of 40° C. and 75% relative humidity were chosen. 50 mg each of the 1:1 cannabidiolic acid L-phenylalanine, 1:1 cannabidiolic acid vanillin, 1:1 cannabidiolic acid betaine, 1:1 cannabidiolic acid ethyl maltol, 1:1 cannabidiolic acid L-proline and cannabidiolic acid were separately placed in a sealed container at 40° C. and 75% relative humidity and monitored periodically over a 4-week time period. All samples that had not decomposed and remained as solids were analyzed by XRPD after this time to observe any potential form changes. At the start of the study, all cocrystal samples were white solids while the pure cannabidiolic acid was an off-white solid.

5-HT1A = target: T1, 5-HT1A (Rattus norvegicus, UniProt P19327); conditions: higher affinity than CBD; Bolognini et al. 2012; cited from earlier work
T1 sequence (P19327 1-422): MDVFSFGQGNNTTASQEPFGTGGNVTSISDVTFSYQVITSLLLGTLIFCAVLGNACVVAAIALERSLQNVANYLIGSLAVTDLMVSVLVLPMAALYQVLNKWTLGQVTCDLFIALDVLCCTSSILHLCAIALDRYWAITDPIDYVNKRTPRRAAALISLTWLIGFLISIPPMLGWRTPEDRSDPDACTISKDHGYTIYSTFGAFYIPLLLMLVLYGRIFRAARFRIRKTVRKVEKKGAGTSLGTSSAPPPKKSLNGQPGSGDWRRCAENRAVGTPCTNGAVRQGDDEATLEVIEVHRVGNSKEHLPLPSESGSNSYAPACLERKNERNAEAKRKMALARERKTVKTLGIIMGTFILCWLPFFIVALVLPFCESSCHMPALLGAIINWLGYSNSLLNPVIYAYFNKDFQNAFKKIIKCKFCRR

[2] = system: nausea and vomiting in a rat model; conditions: via 5-HT1A activation mechanism, Bolognini et al. 2012; cited from earlier work
COX-2 = target: T2, COX-2 (Homo sapiens, UniProt P35354); conditions: Takeda 2008; cited from earlier work
T2 sequence (P35354 18-604): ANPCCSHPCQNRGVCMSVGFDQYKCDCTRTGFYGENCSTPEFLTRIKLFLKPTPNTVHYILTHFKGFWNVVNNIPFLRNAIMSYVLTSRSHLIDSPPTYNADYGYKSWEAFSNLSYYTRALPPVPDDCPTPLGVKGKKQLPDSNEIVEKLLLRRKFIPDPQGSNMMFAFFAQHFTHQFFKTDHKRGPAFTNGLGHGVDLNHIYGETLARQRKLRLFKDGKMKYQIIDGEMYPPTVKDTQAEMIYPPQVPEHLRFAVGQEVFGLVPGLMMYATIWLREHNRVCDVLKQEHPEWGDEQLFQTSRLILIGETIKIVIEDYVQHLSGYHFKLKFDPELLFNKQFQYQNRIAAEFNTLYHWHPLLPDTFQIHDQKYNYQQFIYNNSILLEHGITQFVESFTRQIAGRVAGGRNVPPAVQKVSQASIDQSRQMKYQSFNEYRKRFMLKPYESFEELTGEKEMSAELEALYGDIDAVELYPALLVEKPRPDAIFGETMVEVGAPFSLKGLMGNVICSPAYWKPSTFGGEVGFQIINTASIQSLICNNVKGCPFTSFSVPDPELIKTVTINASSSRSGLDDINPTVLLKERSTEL

[3] = WO2017025712; cited from earlier work

Structure (SMILES): C=C(C)[C@@H]1CCC(C)=C[C@H]1c1c(O)cc(CCCCC)c(C(=O)O)c1O.N[C@@H](Cc1ccccc1)C(=O)O [1:1 CBDA Phenylalanine Cocrystal, 1:1 cannabidiolic acid L-phenylalanine cocrystal]
- XRPD (solid form change) ([1]; 4 weeks): No change
- XRPD (solid form change) ([1]; 4 weeks, listed as 1:1 cannabidiolic acid L-phenylalanine): no solid form conversion or dissociation had occurred
- Appearance ([1]; 4 weeks, white solid at start): No change
- Appearance ([1]; 4 weeks, white solid at start, listed as 1:1 cannabidiolic acid L-phenylalanine): remained unchanged as white solids
- Storage stability compared to pure cannabidiolic acid [1]: significantly superior storage properties compared to pure CBDA

Structure (SMILES): C=C(C)[C@@H]1CCC(C)=C[C@H]1c1c(O)cc(CCCCC)c(C(=O)O)c1O.CCc1occc(=O)c1O [1:1 CBDA Ethyl Maltol Cocrystal, 1:1 cannabidiolic acid ethyl maltol cocrystal]
- Time to conversion into dark brown liquid [1]: ≤ 2 weeks
- Appearance ([1]; 2 weeks, white solid at start): Dark brown liquid
- Storage stability compared to pure cannabidiolic acid [1]: more stable than pure cannabidiolic acid

Structure (SMILES): C=C(C)[C@@H]1CCC(C)=C[C@H]1c1c(O)cc(CCCCC)c(C(=O)O)c1O.COc1cc(C=O)ccc1O [1:1 CBDA Vanillin Cocrystal, 1:1 cannabidiolic acid vanillin cocrystal]
- Time to conversion into dark brown liquid [1]: ≤ 3 weeks
- Appearance ([1]; 3 weeks, white solid at start): Dark brown liquid
- Storage stability compared to pure cannabidiolic acid [1]: more stable than pure cannabidiolic acid

Structure (SMILES): C=C(C)[C@@H]1CCC(C)=C[C@H]1c1c(O)cc(CCCCC)c(C(=O)O)c1O.C[N+](C)(C)CC(=O)[O-] [1:1 CBDA Betaine Cocrystal, 1:1 cannabidiolic acid betaine cocrystal]
- XRPD (solid form change) ([1]; 4 weeks): No change
- XRPD (solid form change) ([1]; 4 weeks, listed as 1:1 cannabidiolic acid betaine): no solid form conversion or dissociation had occurred
- Appearance ([1]; 4 weeks, white solid at start): No change
- Appearance ([1]; 4 weeks, white solid at start, listed as 1:1 cannabidiolic acid betaine): remained unchanged as white solids
- Storage stability compared to pure cannabidiolic acid [1]: significantly superior storage properties compared to pure CBDA

Structure (SMILES): C=C(C)[C@@H]1CCC(C)=C[C@H]1c1c(O)cc(CCCCC)c(C(=O)O)c1O [Pure CBDA, cannabidiolic acid]
- Time to deliquescence to a liquid [1]: Within one hour
- Appearance ([1]; 2 hours, off-white solid at start): Dark brown liquid
- Appearance ([1]; 2 hours, off-white solid at start, listed as pure CBDA): liquid that within a further hour had turned dark brown in color
- Affinity for 5-HT1A relative to CBD (5-HT1A): 100 fold
- Inhibition of nausea and vomiting, potency versus CBD [2]: significantly greater potency than CBD
- Inhibition of COX-2 activity (COX-2): selectively inhibit COX-2 activity
- Efficacy in treating epilepsy versus CBD [3]: more effective than CBD

Structure (SMILES): C=C(C)C1CCC(C)=CC1c1c(O)cc(CCCCC)c(C(=O)O)c1O.O=C(O)C1CCCN1 [1:1 CBDA L-Proline Cocrystal, 1:1 cannabidiolic acid L-proline cocrystal]
- XRPD (solid form change) ([1]; 4 weeks): No change
- XRPD (solid form change) ([1]; 4 weeks, listed as 1:1 cannabidiolic acid L-proline cocrystal): same crystalline structure
- Appearance ([1]; 4 weeks, white solid at start): tan solid
- Appearance ([1]; 4 weeks, white solid at start, listed as 1:1 cannabidiolic acid L-proline cocrystal): tanned colored solid
